Molecules are shown by their SMILES.

In experiment [1] the test system is primary cultured mouse chondrocytes. Nature of the experiment: mRNA and protein levels of cartilage-specific matrix genes in primary cultured mouse chondrocytes. The experiment is classed as cell-based. Particulars: for expression of cartilage-specific matrix genes: chondrocytes treated with drugs, mRNA and protein levels (FIG. 1f, g). Here is the method:
Primary culture of mouse articular chondrocytes. For the primary culture of mouse articular chondrocytes, cells were isolated from femoral condyles and tibial plateaus of 4-5-day-old ICR mice, as described previously^83. Chondrocytes were maintained in DMEM supplemented with 10% fetal bovine serum (FBS), 100 units/ml penicillin, and 100 μg/ml streptomycin, and cells were treated as indicated in each experiment. Transfection was performed with […] PRO (Biontex) according to the manufacturer's protocol. All siRNAs, including negative control siRNA, were purchased from Bioneer. Recombinant mouse Wnt-3a (315-20) was purchased from PeproTech, and recombinant mouse Dkk-1 (5897-DK) was purchased from R&D Systems.
RT-PCR and qPCR. Total RNAs were extracted using TRI reagent (Molecular Research Center, Inc.). RNAs were reverse transcribed using EasyScript Reverse Transcriptase (Transgen Biotech). Then, cDNA was amplified by PCR or qPCR with the primers listed in Table 2. qPCR was performed with SYBR TOPreal qPCR 2× preMIX (Enzynomics) to determine transcript abundance. Transcript quantity was calculated using the ΔΔCt method, and Hprt or HPRT1 levels were used as housekeeping controls. The log 2 (fold change) value of the cartilage stromal gene of mouse articular chondrocytes treated with siRNA was clustered using a hierarchical clustering algorithm (mean association and central correlation distance) in 1.0.4 R package. PCA was performed using the same R package.
Whole-cell lysate preparation. Whole-cell lysates were prepared in RIPA buffer (150 mM NaCl, 1% NP-40, 50 mM Tris, pH 8.0, 0.5% sodium deoxycholate, 0.1% SDS) supplemented with a protease inhibitor cocktail (Sigma-Aldrich).

For a further experiment, the system named is mouse chondrocytes. Description: RNA sequencing and gene set enrichment analysis of treated chondrocytes. The experiment is classed as cell-based. The settings on record: drugs 10 μM for 108 h vs vehicle; siRNAs vs control siRNA. Here is the method: RNA sequencing (RNA-seq). Primary cultured mouse articular chondrocytes were treated with DMSO or 10 μM of XAV939 or IWR-1 for 108 h or transfected with control siRNA or Tnks and Tnks2 siRNAs. Three biological replicates were used for each group. One microgram of high-quality RNA samples (RIN>7.0) were used to construct RNA-seq libraries with the TruSeq Stranded mRNA Library Prep kit (Illumina). Libraries were validated with an Agilent 2100 Bioanalyzer. RNA-seq was performed on an Illumina HiSeq 2500 sequencer at Macrogen. The sequence reads were trimmed with Trimmomatic^86 and mapped against the mouse reference genome (mm10) using TopHat. Read counts per gene were calculated using HTSeq^88. Differential expression analysis was conducted using the DESeq2 R package^89. DEGs were selected using a |fold change| cutoff of >3 and a FDR q cutoff of <1×10^−5. DEGs at least one condition were clustered with hierarchical clustering algorithm (ward.D linkage with euclidean distance) using gplots R package. GO analysis was conducted using Enrichr^90. Heatmaps of DEGs that are in the cartilage-signature gene set or the osteoarthritis-signature gene sets were drawn with Gitools.
GSEA analysis. Genes were ranked according to the shrunken log2 fold change calculated via DESeq2. […]

Experiment [2] concerns mouse limb-bud mesenchymal cells. Nature of the experiment: Mouse limb-bud micromass culture, Alcian Blue staining. Particulars: micromass cultures, treated 3 days. The experiment is classed as cell-based. Here is the method:
Mouse limb-bud micromass culture. For the micromass culture of mesenchymal cells, limb-bud cells were isolated from E11.5 ICR mouse embryos. 2.0×10^7 cells/ml were suspended in DMEM supplemented with 10% FBS, 100 units/ml penicillin, and 100 μg/ml streptomycin, and 15-μ1 drops were spotted on culture dishes. After 24 h, cells were treated as indicated for 3 days and subjected to Alcian Blue staining.

In experiment [3] the test system is articular cartilage of DMM-operated mouse. Description: Experimental OA in mice (DMM surgery), intra-articular hydrogel drug delivery. The experiment is classed as in vivo. Particulars: for degeneration of cartilage matrix caused by DMM (Safranin O staining, OARSI grade): IA administration in hydrogel, 10 nmol drug. Here is the method: Preparation of hydrogels and in vivo confirmation of controlled release of embedded molecules. 6-O-Palmitoyl-l-ascorbic acid (76183) was purchased from Sigma-Aldrich. […] PBS-suspended hydrogel (10 μl, PBS:hydrogel=1:1) containing 50 pmol DiD was administered intra-articularly, and at 1-9 days post-injection, light-emitting diode (LED) and fluorescence images of knee joints were obtained. LuminoGraph II (Atto) was used to acquire the images.
Experimental OA in mice. Eight-week-old male ICR mice were used for experimental OA. Experimental OA was induced by DMM (Destabilization of the medial meniscus) surgery on the right hindlimb, and sham surgery was conducted on the left hindlimb as a control (Glasson, S. S., Blanchet, T. J. & Morris, E. A. The surgical destabilization of the medial meniscus (DMM) model of osteoarthritis in the 129/SvEv mouse. Osteoarthritis Cartilage 15, 1061-1069, doi:10.1016/j.joca.2007.03.006 (2007)). 10 μl of PBS-suspended hydrogel (PBS:hydrogel=1:1) containing vehicle or 10 nmol drugs was administered intra-articularly.
Histology and immunohistochemistry. Mouse and rat knee joint samples and human cartilage samples were fixed with 4% paraformaldehyde overnight at 4° C. All samples were […] for 2-4 weeks 0.5M EDTA, pH 7.4 at 4° C. and embedded in paraffin. Mouse and rat paraffin blocks were sectioned at a thickness of 6 μm, and human paraffin blocks were sectioned to a thickness of 5 μm. […] Cartilage regeneration in osteochondral defect model was scored according to the International Cartilage Repair Society (ICRS) scoring system (Haikarainen, T., Krauss, S. & Lehtio, L. Tankyrases: structure, function and therapeutic implications in cancer. Curr Pharm Des 20, 6472-6488 (2014) and Mainil-Varlet, P. et al. Histological assessment of cartilage repair: a report by the Histology Endpoint Committee of the International Cartilage Repair Society (ICRS). J Bone Joint Surg Am 85-A Suppl 2, 45-57 (2003)) by three blinded observers.

For the compound `C[C@]1(c2nc3c(C(N)=O)cccc3[nH]2)CCCN1` [ABT-888], in experiment [1], the “expression of cartilage-specific matrix genes” value is recorded as “failed to increase their expressions”.
`Cc1cc(/C=C2\SC(=O)N(c3ccccc3)C2=O)c(C)n1-c1cccnc1` [iCRT 1429]: the “expression of cartilage matrisome” value in experiment [1] (β-catenin inhibition in chondrocytes (FIG. 2e, f, g), iCRT 14 for 24 h) is “did not significantly affect the expression of cartilage matrisome”.
Consider `O=C(Nc1cccc2cccnc12)c1ccc(N2C(=O)C3C4C=CC(C4)C3C2=O)cc1` (centres unmarked) [IWR-1, 4-(1,3,3a,4,7,7a-Hexahydro-1,3-dioxo-4,7-methano-2H-isoindol-2-yl)-N-8-quinolinyl-Benzamide], for which the “enrichment of cartilage-signature genes in whole transcriptome (GSEA)” value with mouse chondrocytes was “positively enriched”. Moreover, the “expression of cartilage-specific matrix genes” value in experiment [1] is given as “increased the expression of cartilage-specific matrix genes”. For the same compound, in experiment [2], the chondrogenic nodule formation result is listed as “effectively induced chondrogenic nodule formation”. In addition, the “degeneration of cartilage matrix caused by DMM (Safranin O staining, OARSI grade)” value in experiment [3] was “significant reduction in the degeneration of cartilage matrix”.
As for `O=c1[nH]c(-c2ccc(C(F)(F)F)cc2)nc2c1CSCC2` [XAV939, 3,5,7,8-Tetrahydro-2-[4-(trifluoromethyl)phenyl]-4H-thiopyrano[4,3-d]pyrimidin-4-one], the “enrichment of cartilage-signature genes in whole transcriptome (GSEA)” value with mouse chondrocytes is given as “positively enriched”. In addition, the “expression of cartilage-specific matrix genes” value in experiment [1] was “increased the expression of cartilage-specific matrix genes”. Further, in experiment [2], the chondrogenic nodule formation result is on record as “effectively induced chondrogenic nodule formation”. Further, in experiment [3], the “degeneration of cartilage matrix caused by DMM (Safranin O staining, OARSI grade)” value was “significant reduction in the degeneration of cartilage matrix”. Besides, in experiment [3] (treatment started 6 weeks after DMM surgery, for additional 6 weeks, compared with vehicle-treated mice), the “cartilage destruction in late-stage OA (Safranin O staining, OARSI grade)” value is reported as “reduction in the cartilage destruction”.

Values taken from patent US20210353681A1, “USE OF TNKS INHIBITORS FOR REGENERATION OF CARTILAGE” (SEOUL NATIONAL UNIVERSITY R&DB FOUNDATION, priority 2020, published 2021).
